# Test results published in patent US6737383B1, “Herbicidal oxadiazolidines” (priority 1999, dated 2004).
# Columns and labels:
# velvetleaf = test: Test B pre/postemergence velvetleaf; type: in vivo, Abutilon theophrasti; details: for Plant response rating, Velvetleaf: Rate 250 g/ha
# Method in brief: (§1)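 Herbicidal effect was estimated by eye on a ten-point control scale after plants spent twelve to sixteen days in a greenhouse following soil or foliar treatment. Foliar sprays targeted plants at one to four leaves; all doses were formulated in a non-phytotoxic solvent with surfactant.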
# cocklebur = test: Test B pre/postemergence cocklebur; type: in vivo, Xanthium strumarium
# Method in brief: as §1
# bedstraw = test: Test B pre/postemergence bedstraw; type: in vivo, Galium aparine
# Method in brief: as §1
# rice = test: Test B flood test rice; type: in vivo, Oryza sativa
# Method in brief: (§2)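 Read-out is a visual response score from 0 (no effect) to 10 (complete control), assigned by comparison with untreated controls. Treatment was applied at the 2-leaf stage, and plants stayed in the greenhouse for twelve to sixteen days before scoring.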
# smallflower flatsedge = test: Test B flood test smallflower flatsedge; type: in vivo, Cyperus difformis
# Method in brief: as §2
# bamyardgrass = test: Test B flood test barnyardgrass; type: in vivo, Echinochloa crus-galli
# Method in brief: as §2
# blackgrass = test: Test B pre/postemergence blackgrass; type: in vivo, Alopecurus myosuroides
# Method in brief: as §1
# purple nutsedge = test: Test B pre/postemergence purple nutsedge; type: in vivo, Cyperus rotundus
# Method in brief: as §1
# surinam grass = test: Test B pre/postemergence surinam grass; type: in vivo, Brachiaria decumbens
# Method in brief: as §1
# soybean = test: Test B pre/postemergence soybean; type: in vivo, Glycine max
# Method in brief: as §1
# corn = test: Test B pre/postemergence corn; type: in vivo, Zea mays
# Method in brief: as §1
# wild oat = test: Test B pre/postemergence wild oat; type: in vivo, Avena fatua; details: for Plant response rating, Wild oats: Rate 250 g/ha
# Method in brief: as §1
# morningglory = test: Test B pre/postemergence morningglory; type: in vivo, Ipomoea hederacea
# Method in brief: as §1
# wheat = test: Test B pre/postemergence wheat; type: in vivo, Triticum aestivum; details: for Plant response rating, Wheat: Rate 250 g/ha
# Method in brief: as §1
# duck salad = test: Test B flood test duck salad; type: in vivo, Heteranthera limosa
# Method in brief: as §2
# giant foxtail = test: Test B pre/postemergence giant foxtail; type: in vivo, Setaria faberii
# Method in brief: as §1
# crabgrass = test: Test B pre/postemergence crabgrass; type: in vivo, Digitaria sanguinalis
# Method in brief: as §1
# [1] = Postemergence, Rate 62 g/ha, scale 0 to 10, 0 is no effect, 10 is complete control
# [2] = Postemergence, Rate 125 g/ha, scale of 0 to 10 where 0 is no effect and 10 is complete control
# [3] = Preemergence, Rate 62 g/ha, scale 0 to 10 (0 no effect, 10 complete control)
# [4] = Preemergence, Rate 125 g/ha, 0 is no effect, 10 is complete control
# [5] = Preemergence, scale of 0 to 10 where 0 is no effect and 10 is complete control
# [6] = Preemergence, Rate 500 g/ha, scale 0 (no effect) to 10 (complete control)
# [7] = Postemergence, scale 0 to 10, 0 is no effect, 10 is complete control
# [8] = Rate 500 g/ha, Postemergence, scale 0 to 10, 0 no effect, 10 complete control
# [9] = Postemergence, Rate 250 g/ha, scale 0 to 10, 0 no effect, 10 complete control
# [10] = Preemergence, Rate 125 g/ha, scale 0 to 10 (0 no effect, 10 complete control)
# [11] = Preemergence, Rate 250 g/ha, scale of 0 to 10 where 0 is no effect and 10 is complete control
# [12] = Postemergence (flood test species), Rate 125 g/ha, scale of 0 to 10 where 0 is no effect and 10 is complete control
# [13] = Rate 250 g/ha, Postemergence (flood test), scale 0 to 10, 0 is no effect, 10 is complete control
# [14] = Rate 250 g/ha, headed Pre-emergence (flood test species), scale 0 to 10 (0 no effect, 10 complete control)
# [15] = Rate 500 g/ha, headed Pre-emergence (flood test species), scale 0 to 10 (0 no effect, 10 complete control)
# [16] = Rate 500 g/ha, listed under Postemergence (flood test species), scale 0 to 10, 0 no effect, 10 complete control
# [17] = Rate 1000 g/ha, Pre-emergence (as headed), scale 0 to 10
# [18] = Rate 2000 g/ha, Pre-emergence (as headed), scale 0 to 10
# [19] = flood test, listed under Postemergence, Rate 250 g/ha, scale 0 to 10, 0 no effect, 10 complete control
structure (smiles),measurement,setting,value
C=CCn1c(=O)on(C(=O)N(c2ccccc2)C(C)C)c1=O [Compound 93],Velvetleaf plant response rating,velvetleaf; [1],0
same,Velvetleaf plant response rating,velvetleaf; [2],0
same,Velvetleaf plant response rating,velvetleaf; [3],5
same,Velvetleaf plant response rating (0 to 10 scale),velvetleaf; [4],6
same,"Plant response rating, Velvetleaf",velvetleaf; [5],6
same,Velvetleaf plant response rating,velvetleaf; [6],10
same,"Plant response rating, Velvetleaf",velvetleaf; [7],0
same,Velvetleaf plant response rating,velvetleaf; [8],6
same,Cocklebur plant response rating,cocklebur; [1],0
same,Cocklebur plant response rating,cocklebur; [2],1
same,Cocklebur plant response rating,cocklebur; [9],2
same,Cocklebur plant response rating,cocklebur; [3],2
same,"Plant response rating, Cocklebur",cocklebur; [10],2
same,Cocklebur plant response rating,cocklebur; [8],4
same,Bedstraw plant response rating,bedstraw; [3],0
same,"Plant response rating, Bedstraw",bedstraw; [10],0
same,"Plant response rating, Bedstraw",bedstraw; [11],0
same,Bedstraw plant response rating,bedstraw; [6],3
same,Bedstraw plant response rating,bedstraw; [8],7
same,Rice plant response rating,rice; [12],0
same,Rice plant response rating,rice; [1],0
same,"Plant response rating, Rice",rice; [13],0
same,Rice plant response rating,rice; [14],0
same,"Plant response rating, Rice",rice; [15],0
same,Rice plant response rating,rice; [16],4
same,Rice plant response rating,rice; [17],0
same,Rice plant response rating,rice; [18],0
same,S. Flatsedge plant response rating,smallflower flatsedge; [12],0
same,S. Flatsedge plant response rating,smallflower flatsedge; [1],0
same,S. Flatsedge plant response rating,"smallflower flatsedge; Pre-emergence, Rate 1000 g/ha, scale 0 to 10 (0 no effect, 10 complete control)",0
same,"Plant response rating, S. Flatsedge",smallflower flatsedge; [13],0
same,S. Flatsedge plant response rating,smallflower flatsedge; [14],0
same,"Plant response rating, S. Flatsedge",smallflower flatsedge; [15],0
same,S. Flatsedge plant response rating,smallflower flatsedge; [16],6
same,S. Flatsedge plant response rating,smallflower flatsedge; [18],0
same,Barnyardgrass plant response rating,bamyardgrass; [1],0
same,Barnyardgrass plant response rating,"bamyardgrass; Rate 125 g/ha, Postemergence section (flood test species), scale 0 to 10, 0 no effect, 10 complete control",0
same,Barnyardgrass plant response rating,bamyardgrass; [14],0
same,"Plant response rating, Barnyardgrass",bamyardgrass; [15],0
same,Barnyardgrass plant response rating,bamyardgrass; [16],0
same,Barnyardgrass plant response rating,bamyardgrass; [17],0
same,Barnyardgrass plant response rating,"bamyardgrass; Rate 2000 g/ha, Pre-emergence (as headed), scale 0 to 10, 0 no effect, 10 complete control",0
same,Barnyardgrass plant response rating,bamyardgrass; [19],0
same,Blackgrass plant response rating,blackgrass; [1],7
same,Blackgrass plant response rating,blackgrass; [2],8
same,Blackgrass plant response rating,blackgrass; [9],8
same,Blackgrass plant response rating,blackgrass; [3],9
same,"Plant response rating, Blackgrass",blackgrass; [10],10
same,"Plant response rating, Blackgrass",blackgrass; [11],10
same,Blackgrass plant response rating,blackgrass; [6],10
same,Blackgrass plant response rating,blackgrass; [8],8
same,Nutsedge plant response rating,purple nutsedge; [1],0
same,Nutsedge plant response rating,purple nutsedge; [2],0
same,Nutsedge plant response rating,purple nutsedge; [9],0
same,Nutsedge plant response rating,purple nutsedge; [3],0
same,"Plant response rating, Nutsedge",purple nutsedge; [10],0
same,"Plant response rating, Nutsedge",purple nutsedge; [11],0
same,Nutsedge plant response rating,purple nutsedge; [8],3
same,B. signalgrass plant response rating,surinam grass; [1],3
same,B. signalgrass plant response rating,surinam grass; [9],8
same,"Plant response rating, B. signalgrass",surinam grass; [10],7
same,B. signalgrass plant response rating,surinam grass; [6],8
same,B. signalgrass plant response rating,"surinam grass; Rate 125 g/ha, Postemergence, scale 0 to 10, 0 no effect, 10 complete control",5
same,B. signalgrass plant response rating,"surinam grass; Rate 500 g/ha, Postemergence, scale of 0 to 10 where 0 is no effect and 10 is complete control",9
same,Soybean plant response rating,soybean; [1],4
same,Soybean plant response rating,soybean; [2],5
same,Soybean plant response rating,soybean; [3],0
same,"Plant response rating, Soybean",soybean; [10],2
same,"Plant response rating, Soybean",soybean; [11],7
same,Soybean plant response rating,soybean; [6],9
same,"Plant response rating, Soybean","soybean; Rate 250 g/ha, Postemergence, scale 0 to 10, 0 is no effect, 10 is complete control",5
same,Soybean plant response rating,soybean; [8],7
same,Corn plant response rating,corn; [1],3
same,Corn plant response rating,corn; [2],4
same,Corn plant response rating,corn; [9],5
same,Corn plant response rating,corn; [3],3
same,"Plant response rating, Corn",corn; [10],7
same,"Plant response rating, Corn",corn; [11],8
same,Corn plant response rating,corn; [6],9
same,Corn plant response rating,corn; [8],5
same,Wild oats plant response rating,wild oat; [1],0
same,Wild oats plant response rating,wild oat; [2],0
same,Wild oats plant response rating,wild oat; [3],8
same,Wild oats plant response rating (0 to 10 scale),wild oat; [4],8
same,"Plant response rating, Wild oats",wild oat; [5],10
same,Wild oats plant response rating,wild oat; [6],10
same,"Plant response rating, Wild oats",wild oat; [7],2
same,Wild oats plant response rating,wild oat; [8],5
same,Morningglory plant response rating,morningglory; [1],6
same,Morningglory plant response rating,morningglory; [2],10
same,Morningglory plant response rating,morningglory; [9],10
same,Morningglory plant response rating,morningglory; [3],0
same,"Plant response rating, Morningglory",morningglory; [10],0
same,"Plant response rating, Morningglory",morningglory; [11],3
same,Morningglory plant response rating,morningglory; [6],6
same,Morningglory plant response rating,morningglory; [8],10
same,Wheat plant response rating,wheat; [1],0
same,Wheat plant response rating,wheat; [2],3
same,Wheat plant response rating,wheat; [3],3
same,Wheat plant response rating (0 to 10 scale),wheat; [4],3
same,"Plant response rating, Wheat",wheat; [5],6
same,Wheat plant response rating,wheat; [6],8
same,"Plant response rating, Wheat",wheat; [7],4
same,Wheat plant response rating,wheat; [8],5
same,Ducksalad plant response rating,duck salad; [12],0
same,Ducksalad plant response rating,duck salad; [1],0
same,Ducksalad plant response rating,duck salad; [14],0
same,"Plant response rating, Ducksalad",duck salad; [15],0
same,Ducksalad plant response rating,duck salad; [16],0
same,Ducksalad plant response rating,duck salad; [17],0
same,Ducksalad plant response rating,duck salad; [18],0
same,Ducksalad plant response rating,duck salad; [19],0
same,Giant foxtail plant response rating,giant foxtail; [1],6
same,Giant foxtail plant response rating,giant foxtail; [2],7
same,Giant foxtail plant response rating,giant foxtail; [9],9
same,Giant foxtail plant response rating,giant foxtail; [3],10
same,"Plant response rating, Giant foxtail",giant foxtail; [10],10
same,"Plant response rating, Giant foxtail",giant foxtail; [11],10
same,Giant foxtail plant response rating,giant foxtail; [6],10
same,Giant foxtail plant response rating,giant foxtail; [8],9
same,Crabgrass plant response rating,crabgrass; [1],7
same,Crabgrass plant response rating,crabgrass; [2],8
same,Crabgrass plant response rating,crabgrass; [9],9
same,Crabgrass plant response rating,crabgrass; [3],7
same,"Plant response rating, Crabgrass",crabgrass; [10],9
same,"Plant response rating, Crabgrass",crabgrass; [11],9
same,Crabgrass plant response rating,crabgrass; [6],10
same,Crabgrass plant response rating,crabgrass; [8],9
